Data on 16 compounds can be found in patent publication US11091478B2 (Fochon Pharmaceuticals, Ltd., priority 2017, dated 2021).

One test relates to DOHH2 cells. Description: Cell proliferation assay (MTS), DOHH2 cells, 120 h. The format is cell-based. To be noted: Homo sapiens, DOHH-2, 120 h. In a few lines:
(§1)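 Proliferation was scored by MTS (2 h, then SDS stop, A490 with 650 nm reference) and IC50 derived. Compound ran at nine final concentrations from 1.5 to 10000 nM. DOHH2 were incubated 120 h and RS4;11 72 h, both plated at 5000 cells/well in RPMI-1640 plus 10% FBS.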

The subject of another test is RS4;11 cells. In words: Cell proliferation assay (MTS), RS4;11 cells, 72 h. The format is cell-based. To be noted: Homo sapiens, RS4-11, 72 h. The method, boiled down: as §1

Structures are written as SMILES.

Usually IC50 stands for the concentration that gives 50% inhibition. Take `CC1(C)CCC(CN2CCN(c3ccc(C(=O)NS(=O)(=O)c4cc5c(c([N+](=O)[O-])c4)N[C@H](CCN4CCC(N=S(C)(C)=O)CC4)CO5)c(Oc4cnc5[nH]ccc5c4)c3)CC2)=C(c2ccc(Cl)cc2)C1` [Example 2-131, (R)-2-((1H-pyrrolo[2,3-b]pyridin-5-yl)oxy)-4-(4-((4′-chloro-5,5-dimethyl-3,4,5,6-tetra-hydro-[1,1′-biphenyl]-2-yl)methyl)piperazin-1-yl)-N-((3-(2-(4-((dimethyl(oxo)-λ^6-sulfa-nylidene)amino)piperidin-1-yl)ethyl)-5-nitro-3,4-dihydro-2H-benzo[b][1,4]oxazin-7-yl)sulfonyl)benzamide]: the IC50 in the test on DOHH2 cells stood at 39 nM; with RS4;11 cells, 9 nM.
Regarding `CC1(C)CCC(CN2CCN(c3ccc(C(=O)NS(=O)(=O)c4cc5c(c([N+](=O)[O-])c4)N[C@H](C4CCNCC4)CO5)c(Oc4cnc5[nH]ccc5c4)c3)CC2)=C(c2ccc(Cl)cc2)C1` [Example 2-226, (R)-2-((1H-pyrrolo[2,3-b]pyridin-5-yl)oxy)-4-(4-((4′-chloro-5,5-dimethyl-3,4,5,6-tetra-hydro-[1,1′-biphenyl]-2-yl)methyl)piperazin-1-yl)-N-((5-nitro-3-(piperidin-4-yl)-3,4-dihydro-2H-benzo[b][1,4]oxazin-7-yl)sulfo-nyl)benzamide], the IC50 in the test with DOHH2 cells came to 48 nM; in the test with RS4;11 cells, 10 nM.
For `CC1(C)CCC(CN2CCN(c3ccc(C(=O)NS(=O)(=O)c4cc5c(c([N+](=O)[O-])c4)N[C@H](C4CCC(C)(O)CC4)CO5)c(Oc4cnc5[nH]ccc5c4)c3)CC2)=C(c2ccc(Cl)cc2)C1` (single isomer, unassigned) [Example 2-3A] the same measures were 16 nM and 1 nM.
For `CC1(C)CCC(CN2CCN(c3ccc(C(=O)NS(=O)(=O)c4cc5c(c([N+](=O)[O-])c4)N[C@H](C4CCN(S(C)(=O)=O)CC4)CO5)c(Oc4cnc5[nH]ccc5c4)c3)CC2)=C(c2ccc(Cl)cc2)C1` [Example 2-225, (R)-2-((1H-pyrrolo[2,3-b]pyridin-5-yl)oxy)-4-(4-((4′-chloro-5,5-dimethyl-3,4,5,6-tetra-hydro-[1,1′-biphenyl]-2-yl)methyl)piperazin-1-yl)-N-((3-(1-(methylsulfonyl)piperidin-4-yl)-5-nitro-3,4-dihydro-2H-benzo[b][1,4]oxazin-7-yl)sulfonyl)benzamide] the same measures were 15 nM and 2 nM.
Regarding `CC1(C)CCC(CN2CCN(c3ccc(C(=O)NS(=O)(=O)c4cc5c(c([N+](=O)[O-])c4)N[C@H](Cc4ccccc4F)CO5)c(Oc4cnc5[nH]ccc5c4)c3)CC2)=C(c2ccc(Cl)cc2)C1` [Example 2-157, (R)-2-((1H-pyrrolo[2,3-b]pyridin-5-yl)oxy)-4-(4-((4′-chloro-5,5-dimethyl-3,4,5,6-tetra-hydro-[1,1′-biphenyl]-2-yl)methyl)piperazin-1-yl)-N-((3-(2-fluorobenzyl)-5-nitro-3,4-dihydro-2H-benzo[b][1,4]oxazin-7-yl)sulfo-nyl)benzamide], the IC50 amounted to 39 nM with DOHH2 cells and 10 nM in the test on RS4;11 cells.
On the same counts, the results for `CC1(C)CCC(CN2CCN(c3ccc(C(=O)NS(=O)(=O)c4cc5c(c([N+](=O)[O-])c4)N[C@H](CN4CCOCC4)CN5)c(Oc4cnc5[nH]ccc5c4)c3)CC2)=C(c2ccc(Cl)cc2)C1` [Example 4-2, (S)-2-((1H-pyrrolo[2,3-b]pyridin-5-yl)oxy)-4-(4-((4′-chloro-5,5-dimethyl-3,4,5,6-tetra-hydro-[1,1′-biphenyl]-2-yl)methyl)piperazin-1-yl)-N-((2-(morpholinomethyl)-8-nitro-1,2,3,4-tetrahydroquinoxalin-6-yl)sulfonyl) benzamide] are 29 nM and 9 nM.
In the case of `CC1(C)CCC(CN2CCN(c3ccc(C(=O)NS(=O)(=O)c4cc5c(c([N+](=O)[O-])c4)N[C@H](COC4CCOCC4)CO5)c(Oc4cnc5[nH]ccc5c4)c3)CC2)=C(c2ccc(Cl)cc2)C1` [Example 2-184, (R)-2-((1H-pyrrolo[2,3-b]pyridin-5-yl)oxy)-4-(4-((4′-chloro-5,5-dimethyl-3,4,5,6-tetra-hydro-[1,1′-biphenyl]-2-yl)methyl)piperazin-1-yl)-N-((5-nitro-3-(((tetrahydro-2H-pyran-4-yl)oxy)methyl)-3,4-dihydro-2H-benzo [b][1,4]oxazin-7-yl)sulfonyl)benzamide], the IC50 in the test with DOHH2 cells was found to be 11 nM; in the test with RS4;11 cells, 3 nM.
On the same counts, the results for `CC1(C)CCC(CN2CCN(c3ccc(C(=O)NS(=O)(=O)c4cc5c(c([N+](=O)[O-])c4)N[C@@H](CCN4CC(C)(O)C4)CO5)c(Oc4cnc5[nH]ccc5c4)c3)CC2)=C(c2ccc(Cl)cc2)C1` [Example 2-45, (S)-2-((1H-pyrrolo[2,3-b]pyridin-5-yl)oxy)-4-(4-((4′-chloro-5,5-dimethyl-3,4,5,6-tetra-hydro-[1,1′-biphenyl]-2-yl)methyl)piperazin-1-yl)-N-((3-(2-(3-hydroxy-3-methylazeti-din-1-yl)ethyl)-5-nitro-3,4-dihydro-2H-ben-zo[b][1,4]oxazin-7-yl)sulfonyl)benzamide] are 17 nM and 12 nM.
Consider `CC1(C)CCC(CN2CCN(c3ccc(C(=O)NS(=O)(=O)c4cc5c(c([N+](=O)[O-])c4)N[C@@H](c4ccc(C#N)cc4)CO5)c(Oc4cnc5[nH]ccc5c4)c3)CC2)=C(c2ccc(Cl)cc2)C1` [Example 2-206, (S)-2-((1H-pyrrolo[2,3-b]pyridin-5-yl)oxy)-4-(4-((4′-chloro-5,5-dimethyl-3,4,5,6-tetra-hydro-[1,1′-biphenyl]-2-yl)methyl)piperazin-1-yl)-N-((3-(4-cyanophenyl)-5-nitro-3,4-dihdyro-2H-benzo[b][1,4]oxazin-7-yl)sulfo-nyl)benzamide], for which the values for the half-maximal inhibitory concentration (IC50) in the test with DOHH2 cells and with RS4;11 cells were 312 nM and 21 nM, respectively.
For `CC1(C)CCC(CN2CCN(c3ccc(C(=O)NS(=O)(=O)c4cc5c(c([N+](=O)[O-])c4)N[C@H](Cc4ccccc4)CO5)c(Oc4cnc5[nH]ccc5c4)c3)CC2)=C(c2ccc(Cl)cc2)C1` [Example 2-156, (R)-2-((1H-pyrrolo[2,3-b]pyridin-5-yl)oxy)-N-((3-benzyl-5-nitro-3,4-dihdyro-2H-benzo[b][1,4]oxazin-7-yl)sulfonyl)-4-(4-((4′-chloro-5,5-dimethyl-3,4,5,6-tetrahydro-[1,1′-biphenyl]-2-yl)methyl)piperazin-1-yl)benza-mide] the same measures were 6 nM and 19 nM.
For `C[C@@H]1CN(C[C@H]2COc3cc(S(=O)(=O)NC(=O)c4ccc(N5CCN(CC6=C(c7ccc(Cl)cc7)CC(C)(C)CC6)CC5)cc4Oc4cnc5[nH]ccc5c4)cc([N+](=O)[O-])c3N2)CCN1C1COC1` [Example 2-29, 2-((1H-pyrrolo[2,3-b]pyridin-5-yl)oxy)-4-(4-((4′-chloro-5,5-dimethyl-3,4,5,6-tetrahydro-[1,1′-biphenyl]-2-yl)methyl)piperazin-1-yl)-N-(((S)-3-(((R)-3-methyl-4-(oxetan-3-yl)piperazin-1-yl)methyl)-5-nitro-3,4-dihydro-2H-benzo[b][1,4]oxazin-7-yl)sulfonyl) benzamide] the same measures were 7 nM and 1 nM.
On to `CN1CCN(C(=O)C[C@H]2Cc3cc(S(=O)(=O)NC(=O)c4ccc(N5CCN(CC6=C(c7ccc(Cl)cc7)CC(C)(C)CC6)CC5)cc4Oc4cnc5[nH]ccc5c4)cc([N+](=O)[O-])c3N2)CC1` [Example 1-25], for which the IC50 in the test on DOHH2 cells and in the test on RS4;11 cells was 6 nM in each case.
Take `COc1ccc([C@@H]2COc3cc(S(=O)(=O)NC(=O)c4ccc(N5CCN(CC6=C(c7ccc(Cl)cc7)CC(C)(C)CC6)CC5)cc4Oc4cnc5[nH]ccc5c4)cc([N+](=O)[O-])c3N2)nc1` [Example 2-179, (R)-2-((1H-pyrrolo[2,3-b]pyridin-5-yl)oxy)-4-(4-((4′-chloro-5,5-dimethyl-3,4,5,6-tetra-hydro-[1,1′-biphenyl]-2-yl)methyl)pieprazin-1-yl)-N-((3-(5-methoxypyridin-2-yl)-5-ni-tro-3,4-dihydro-2H-benzo[b][1,4]oxazin-7-yl)sulfonyl)benzamide]: the IC50 in the test on DOHH2 cells is 380 nM; with RS4;11 cells, 18 nM.
On the same counts, the results for `CC1(C)CCC(CN2CCN(c3ccc(C(=O)NS(=O)(=O)c4cc5c(c([N+](=O)[O-])c4)N[C@@H](Cc4ccccc4C#N)CO5)c(Oc4cnc5[nH]ccc5c4)c3)CC2)=C(c2ccc(Cl)cc2)C1` [Example 2-208, (S)-2-((1H-pyrrolo[2,3-b]pyridin-5-yl)oxy)-4-(4-((4′-chloro-5,5-dimethyl-3,4,5,6-tetra-hydro-[1,1′-biphenyl]-2-yl)methyl)piperazin-1-yl)-N-((3-(2-cyanobenzyl)-5-nitro-3,4-dihydro-2H-benzo[b][1,4]oxazin-7-yl)sulfo-nyl)benzamide] are 110 nM and 17 nM.
On the same counts, the results for `CC1(C)CCC(CN2CCN(c3ccc(C(=O)NS(=O)(=O)c4cc5c(c([N+](=O)[O-])c4)N[C@@H](Cc4ccncc4)CO5)c(Oc4cnc5[nH]ccc5c4)c3)CC2)=C(c2ccc(Cl)cc2)C1` [Example 2-164] are 16 nM and 34 nM.
`CN(C)CC[C@@H]1COc2cc(S(=O)(=O)NC(=O)c3ccc(N4CCN(CC5=C(c6ccc(Cl)cc6)CC(C)(C)CC5)CC4)cc3Oc3cnc4[nH]ccc4c3)cc([N+](=O)[O-])c2N1` [Example 2-16, (R)-2-((1H-pyrrolo[2,3-b]pyridin-5-yl)oxy)-4-(4-((4′-chloro-5,5-dimethyl-3,4,5,6-tetra-hydro-[1,1′-biphenyl]-2-yl)methyl)piperazin-1-yl)-N-((3-(2-(dimethylamino)ethyl)-5-nitro-3,4-dihydro-2H-benzo[b][1,4]oxazin-7-yl)sulfonyl)benzamide]: the values for the IC50 in the test on DOHH2 cells and with RS4;11 cells were 34 nM and 4 nM, respectively.
